The structures appear in SMILES notation. Where a SMILES comes first, the peptide text is derived from it. Bridges are numbered along the chain shown (N, C = ends). [ ]: non-standard residue; d: D form. 2Nal = N[C@@H](Cc1ccc2ccccc2c1)C(=O)O; d2Nal = N[C@H](Cc1ccc2ccccc2c1)C(=O)O

These results are taken from patent publication US5462926A (Biomeasure, Inc., priority 1993, dated 1995).

The target of assay [1] is T1, NMB receptors on C-6 cells (Rattus norvegicus, UniProt P24053).
T1 construct: endogenous in cells; host or cells: rat glioblastoma C-6 cells
T1 sequence (P24053 1-390): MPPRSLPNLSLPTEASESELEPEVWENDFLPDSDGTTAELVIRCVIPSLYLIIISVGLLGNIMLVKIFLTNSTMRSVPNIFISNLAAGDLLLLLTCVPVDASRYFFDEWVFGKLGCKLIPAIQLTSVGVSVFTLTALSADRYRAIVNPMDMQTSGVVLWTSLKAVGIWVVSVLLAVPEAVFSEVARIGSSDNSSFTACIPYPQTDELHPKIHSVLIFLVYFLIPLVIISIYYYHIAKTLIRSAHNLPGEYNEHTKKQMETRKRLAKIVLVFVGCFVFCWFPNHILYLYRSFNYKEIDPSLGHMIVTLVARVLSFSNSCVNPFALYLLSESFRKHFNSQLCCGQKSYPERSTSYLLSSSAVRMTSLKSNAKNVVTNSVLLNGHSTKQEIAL
Briefly: Binding of 125I-[D-Tyr0]NMB to C-6 glioblastoma cells. Summed up: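 Disaggregated rat C-6 glioblastoma cells (15×10^6/ml) or NMB-R-transfected cells (2×10^6/ml) were incubated with 75 pM 125I-[D-Tyr0]NMB for 60 min at 22° C in HEPES binding buffer with 0.2% BSA, pH 7.4. Values are saturable binding: total minus binding in the presence of excess unlabelled NMB.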

For assay [2], the system named is GRP receptors on rat pancreatic acini. Briefly: Binding of 125I-[Tyr4]bombesin to pancreatic acini. As to conditions: NMB-R transfected cells vs GRP-R on rat pancreatic acini.
Source text: Nonsaturable binding was<10% of total binding in all experiments.
Assay [3] concerns endothelin-1-stimulated increases in [3H]IP. Briefly: Endothelin-1-stimulated [3H]IP in C-6 glioblastoma cells. The class given is cell-based, rat. The procedure:
(§1) Total phosphoinositides in C-6 cells and in NMB-R transfected cells were determined as described previously, with minor modifications [Benya, R. V. et al. Mol. Pharmacol. 42:1058 (1992); and Wang, L-H. et al. Biochem. Jo 286:641 (1992)]. Cells were grown to confluence in 24-well plates and then loaded with 100 μCi/ml myo-[2-^3 H]inositol in Dulbecco's modified essential medium with 2% fetal bovine serum at 37° C. for 48 hrs. Cells were washed and incubated in phosphoinositide buffer (standard buffer additionally containing 10 mM LiCl, 20 mM HEPES, 2 mM CaCl2, 2% BSA, and 1.2 mM MgSO4) for 15 min and then for 60 min at 37° C. with agonists at various concentrations or with 3 nM NMB (a half-maximal effective concentration) and possible antagonists at different concentrations. Reactions were halted using ice-cold 1% HCl in methanol, and the inositol phosphates (IP) were isolated as described previously [Bologna, M. et al. Cancer 63:1714 (1989); and Endo, T. et al. J. Endocrinolo 131:313 (1991)]. Briefly, after loading of the anion exchange column, free [^3 H]glycerophosphorylinositol was removed by washing with 5 mM disodium tetraborate in 60 mM sodium formate. Total [^3 H]inositol phosphates were then eluted using 100 mM formic acid in 1.0M ammonium formate as described previously [Benya, R. V. et al. Mol. Pharmacol. 42:1058 (1992); and Wang, L-H. et al. Biochem. J. 286:641 (1992 )].
(§2) without SSoctapeptide analog added. C6 glioblastoma cells (50,000
(§3) cells/well) were incubated with myo[2^3 H]inositol for two days,
(§4) washed and then incubated with or without the indicated peptides for 60
(§5) minutes at 37° C. in phosphoinositide buffer containing 10 mM LiCl
(§6) as described in METHODS. [^3 H]IP was measured using Dowex AG1X8 anio

For assay [4], the target named is T2, CCKA receptors (Rattus norvegicus, UniProt P30551).
T2 construct: rat pancreas (CCKA receptor assay); from tissue; host or cells: rat pancreas membranes
T2 sequence (P30551 whole entry): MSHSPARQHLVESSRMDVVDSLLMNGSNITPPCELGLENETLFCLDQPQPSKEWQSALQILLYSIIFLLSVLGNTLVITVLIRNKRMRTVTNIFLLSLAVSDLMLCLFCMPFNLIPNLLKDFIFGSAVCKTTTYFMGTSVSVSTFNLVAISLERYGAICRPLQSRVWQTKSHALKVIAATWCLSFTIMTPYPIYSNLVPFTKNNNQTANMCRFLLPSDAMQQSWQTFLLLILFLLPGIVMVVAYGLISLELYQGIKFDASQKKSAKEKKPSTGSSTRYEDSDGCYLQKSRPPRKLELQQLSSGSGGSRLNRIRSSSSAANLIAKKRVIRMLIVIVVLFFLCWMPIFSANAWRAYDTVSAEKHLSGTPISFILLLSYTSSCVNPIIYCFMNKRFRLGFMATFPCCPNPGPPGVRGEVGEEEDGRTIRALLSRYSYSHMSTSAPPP
Briefly: CCKA receptor assay, 125I-CCK-8, rat pancreatic membranes. The class given is binding.

Assay [5] deals with bradykinin1. Nature of the assay: Bradykinin membrane receptor assay, [3H]bradykinin. In kind it is binding. As to conditions: 1 μM.
Assay [6] deals with α1-adrenergic receptor. Nature of the assay: α1-adrenergic membrane receptor assay, rat cerebral cortex. The class given is binding. To be noted: 1 μM.
In assay [7] the test system is α2-adrenergic receptor. Nature of the assay: α2-adrenergic membrane receptor assay, rat cerebral cortex. The class given is binding. To be noted: 1 μM.
The target of assay [8] is T3, β1-adrenergic receptor (Homo sapiens, UniProt P08588).
T3 construct: receptors on plasma membranes on various tissues determined as described in METHODS; from tissue; host or cells: plasma membranes
T3 sequence (P08588 whole entry): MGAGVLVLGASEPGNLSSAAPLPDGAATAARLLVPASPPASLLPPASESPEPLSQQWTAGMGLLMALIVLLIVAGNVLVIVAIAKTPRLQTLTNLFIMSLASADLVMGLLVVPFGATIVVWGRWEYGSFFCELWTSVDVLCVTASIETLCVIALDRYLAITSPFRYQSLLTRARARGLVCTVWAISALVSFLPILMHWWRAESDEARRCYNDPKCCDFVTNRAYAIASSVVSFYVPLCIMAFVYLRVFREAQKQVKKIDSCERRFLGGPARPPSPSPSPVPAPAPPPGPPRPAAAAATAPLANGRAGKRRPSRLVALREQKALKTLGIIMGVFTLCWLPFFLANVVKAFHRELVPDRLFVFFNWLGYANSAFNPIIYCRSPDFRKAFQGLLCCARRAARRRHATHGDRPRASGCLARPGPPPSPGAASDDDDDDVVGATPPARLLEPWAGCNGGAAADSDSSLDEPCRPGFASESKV
Briefly: β1-adrenergic membrane receptor assay, [3H]dihydroalprenolol. The class given is binding. As to conditions: 1 μM.

For assay [9], the target named is T4, benzodiazepine-peripheral receptor (Rattus norvegicus, UniProt P16257).
T4 construct: from tissue; host or cells: rat cerebral cortex membranes
T4 sequence (P16257 whole entry): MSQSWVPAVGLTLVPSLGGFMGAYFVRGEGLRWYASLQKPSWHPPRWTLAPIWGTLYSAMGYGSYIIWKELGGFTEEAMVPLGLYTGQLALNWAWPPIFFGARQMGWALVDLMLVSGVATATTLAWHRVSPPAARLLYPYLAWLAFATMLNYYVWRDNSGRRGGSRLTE
Nature of the assay: Peripheral benzodiazepine membrane receptor assay, rat cerebral cortex. The class given is binding. As to conditions: 1 μM.

For assay [10], the target named is T5, dopamine2 receptor (Rattus norvegicus, UniProt P61169).
T5 construct: rat corpus striatum (dopamine1 and dopamine2 membrane receptor assays); from tissue; host or cells: rat corpus striatum membranes
T5 sequence (P61169 whole entry): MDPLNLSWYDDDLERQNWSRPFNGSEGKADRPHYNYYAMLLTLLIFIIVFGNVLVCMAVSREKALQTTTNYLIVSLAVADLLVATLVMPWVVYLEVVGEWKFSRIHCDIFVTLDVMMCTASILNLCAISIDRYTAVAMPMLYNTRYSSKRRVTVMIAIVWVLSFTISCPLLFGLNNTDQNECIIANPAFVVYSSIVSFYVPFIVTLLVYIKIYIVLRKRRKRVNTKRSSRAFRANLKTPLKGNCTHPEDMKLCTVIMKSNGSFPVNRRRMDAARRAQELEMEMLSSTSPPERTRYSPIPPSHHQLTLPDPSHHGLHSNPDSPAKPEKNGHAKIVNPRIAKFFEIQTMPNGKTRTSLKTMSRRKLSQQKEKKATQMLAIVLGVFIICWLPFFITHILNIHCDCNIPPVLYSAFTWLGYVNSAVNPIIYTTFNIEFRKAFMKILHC
Nature of the assay: Dopamine2 membrane receptor assay, rat corpus striatum. As to conditions: 1 μM. The class given is binding.

The target in assay [11] is T6, sigma opioid receptor (Cavia porcellus, UniProt Q60492).
T6 construct: guinea pig cerebral (N1, histamine H1, and sigma opioid membrane receptor assays); from tissue; host or cells: guinea pig cerebral membranes
T6 sequence (Q60492 whole entry): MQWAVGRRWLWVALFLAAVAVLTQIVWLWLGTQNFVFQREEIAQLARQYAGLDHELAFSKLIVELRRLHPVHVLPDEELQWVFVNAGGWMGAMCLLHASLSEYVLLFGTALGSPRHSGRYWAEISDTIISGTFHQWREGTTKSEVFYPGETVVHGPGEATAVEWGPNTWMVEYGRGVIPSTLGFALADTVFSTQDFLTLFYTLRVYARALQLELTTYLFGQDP
Nature of the assay: Sigma opioid membrane receptor assay, guinea pig cerebral. The class given is binding. As to conditions: 1 μM.

The target of assay [12] is T7, delta opioid receptor (Rattus norvegicus, UniProt P33533).
T7 construct: rat forebrain (TRH, mu and delta opioid membrane assays); from tissue; host or cells: rat forebrain membranes
T7 sequence (P33533 whole entry): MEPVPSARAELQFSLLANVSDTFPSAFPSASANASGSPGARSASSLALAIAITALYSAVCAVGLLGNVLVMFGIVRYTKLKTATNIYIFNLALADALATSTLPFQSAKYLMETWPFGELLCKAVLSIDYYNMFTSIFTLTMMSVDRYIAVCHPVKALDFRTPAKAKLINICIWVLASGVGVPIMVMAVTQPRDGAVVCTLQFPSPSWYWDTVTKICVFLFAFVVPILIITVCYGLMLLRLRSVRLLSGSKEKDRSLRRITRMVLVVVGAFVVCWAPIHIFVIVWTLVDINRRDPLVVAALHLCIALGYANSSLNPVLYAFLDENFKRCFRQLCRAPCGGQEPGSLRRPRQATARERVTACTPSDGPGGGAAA
Briefly: Delta opioid membrane assay, rat forebrain. The class given is binding. To be noted: 1 μM.

Assay [13] deals with T8, N-methyl D-aspartate receptors (Rattus norvegicus, UniProt P35439).
T8 construct: from tissue; host or cells: rat cerebral cortex membranes
Briefly: N-methyl-D-aspartate membrane receptor assay, rat cerebral cortex. In kind it is binding. To be noted: 1 μM.

The target of assay [14] is T9, NMB receptor (Rattus norvegicus, UniProt P24053).
T9 sequence (P24053 1-390): T1 sequence (P24053 1-390)
Briefly: [3H]IP in C-6 glioblastoma cells (alone or NMB-stimulated). Set-up: a full length NMB-preferring bombesin receptor clone generated from rat esophagus; expressed in transfected cells. The class given is cell-based. How it is done:
as §1, §2, §3, §4, §5, §6

Take `CC(C)[C@@H]1NC(=O)[C@H](CCCCN)NC(=O)[C@@H](Cc2c[nH]c3ccccc23)NC(=O)[C@H](Cc2ccc(O)cc2)NC(=O)[C@@H](NC(=O)[C@H](N)Cc2ccc3ccccc3c2)CSSC[C@@H](C(=O)N[C@@H](Cc2ccc3ccccc3c2)C(N)=O)NC1=O` [Analog #1, H2 -D-Nal-Cys-Tyr-D-Trp-Lys-Val-Cys-Nal-NH2] (H-[d2Nal]CY[dW]KVC[2Nal]-NH2; disulfide 2-7): the Ki in [1] (Ki by Cheng method, read-out: Ki 125I-NMB Binding, NMB Receptor, C-6 Cells) amounted to 59 ± 9 nM; in assay [4] (rat pancreatic membranes, read-out: affinity, inhibition of 125I-CCK-8 binding to CCKA receptors) it was 5537 ± 7 nM. In addition, the Kd (in general, the free concentration of one partner at which half of the binding sites on the other are occupied at equilibrium, for simple one-to-one binding) in [1] (read-out: Kd, inhibition of 125I-[D-Tyr0]NMB binding, glioblastoma C-6 cells) was determined as 59 nM. The “fold greater affinity for NMB than GRP receptors” value in assay [2] is 84 fold; in assay [2] (listed as cyclo SS-octa), 100 fold. The “[3H]IP with ET-1 (0.1 nM)” value in assay [3] (analog 10 μM, ET-1 alone 11.0 ± 2.1) came out at 10.9 ± 1.8 dpm × 10^3. The “effect on endothelin-1-stimulated increases in [3H]IP in C-6 cells” value in [3] (listed as Cycle SS-octa) is “did not inhibit”; in assay [3] (listed as cyclo SS octa), “no effect”. The “inhibition of binding to CCKA receptors” value in assay [4] (1 μM) was “did not inhibit binding”. Besides, the “inhibition of binding to bradykinin1 receptors” value in [5] is given as “did not inhibit binding”. Also, the “inhibition of binding to α1-adrenergic receptors” value in assay [6] is listed as “did not inhibit binding”. The “inhibition of binding to α2-adrenergic receptors” value in [7] is “did not inhibit binding”. In addition, in [8], the “inhibition of binding to β1-adrenergic receptors” value is reported as “did not inhibit binding”. Also, the “inhibition of binding to benzodiazepine-peripheral receptors” value in [9] was “did not inhibit binding”. Also, the “inhibition of binding to dopamine2 receptors” value in assay [10] is “did not inhibit binding”. Besides, the “inhibition of binding to sigma opioid receptors” value in assay [11] was “did not inhibit binding”. The “inhibition of binding to delta opioid receptors” value in [12] was “did not inhibit binding”. For the same molecule, the “inhibition of binding to N-methyl D-aspartate receptors” value in [13] is reported as “did not inhibit binding”. The “effect on NMB-stimulated increases in [3H]IP in C-6 cells” value in [14] was “inhibited”. Besides, the “[3H]IP, no peptide added” value in assay [14] (analog 10 μM, 60 min 37° C., control 7.2 ± 1.0) turned out to be 7.4 ± 1.3 dpm × 10^3. The “[3H]IP with NMB (10 nM)” value in assay [14] (analog 10 μM, NMB alone 21.0 ± 1.8) was 7.5 ± 1.0 dpm × 10^3.
